Results from patent US12109264B2, “Motile sperm domain containing protein 2 and inflammation” (ImmuneWalk Therapeutics, Inc., priority 2015, dated 2024).
“Also recorded” adds a separate entry of the source.

Assays:
MOSPD2 [1] = target: T1, MOSPD2 (Homo sapiens, UniProt Q8NHP6); assay: Precipitation of human monocyte proteins with labeled compound, differential display by Mass-Spectrometry; assay type: binding; conditions: proteins from human monocytes
T1 construct: labelled VB-201 and VB-221 were employed on cell lysates from human CD14 monocytes; endogenous in cells; host or cells: primary human CD14 monocytes from peripheral blood of healthy donors
T1 sequence (Q8NHP6 1-518): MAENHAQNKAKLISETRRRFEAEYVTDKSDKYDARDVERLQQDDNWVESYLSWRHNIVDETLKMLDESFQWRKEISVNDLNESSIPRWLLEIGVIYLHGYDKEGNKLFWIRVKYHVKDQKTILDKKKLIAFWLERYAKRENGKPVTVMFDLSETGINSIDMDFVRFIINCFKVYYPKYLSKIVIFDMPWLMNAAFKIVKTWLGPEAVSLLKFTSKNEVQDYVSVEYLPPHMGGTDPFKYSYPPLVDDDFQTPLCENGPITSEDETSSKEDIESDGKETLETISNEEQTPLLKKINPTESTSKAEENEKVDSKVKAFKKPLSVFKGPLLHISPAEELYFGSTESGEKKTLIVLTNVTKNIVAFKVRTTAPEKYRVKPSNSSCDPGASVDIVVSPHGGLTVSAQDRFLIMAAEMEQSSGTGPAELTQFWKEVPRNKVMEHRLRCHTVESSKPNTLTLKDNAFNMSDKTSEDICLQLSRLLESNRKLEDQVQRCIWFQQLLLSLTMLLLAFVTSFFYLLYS

MOSPD2 [2] = target: T1, MOSPD2; assay: Precipitation from human CD14 monocyte lysate, blot against MOSPD2; assay type: binding; conditions: labelled compound (OB201/OB221)
Description: (§1) VB-201 and VB-221 were labeled with biotin as follows. VB-201, VB-221 and ovalbumin (OVA, Sigma, Israel) were dissolved in 0.1M MES buffer (Thermo Scientific, Rockford, IL) and conjugated using EDC [1-ethyl-3-(dimethylaminopropyl) carbodiimide HCL] (Thermo Scientific) at a molar ratio of 100 (VB-201/VB-221):1 (OVA):240 (EDC) for 2-3 hr at room temperature. After which, samples were transferred to 10 kDa dialysis cassettes (Thermo Scientific) and dialyzed overnight against PBS. The ovalbumin bound VB-201 (OB201) and VB-221 (OB221) were then conjugated with amine-PEG2-biotin (in 0.1M MES buffer) using EDC at a molar ratio of 1 (OB201/0B221):100 (amine-PEG2-biotin):700 (EDC). The reaction was allowed to proceed for 2-3 hr at room temperature after which samples were again transferred to a 10 kDa dialysis cassette and dialyzed overnight against PBS.
(§2) Cells were lysed using a 1% NP-40 lysis buffer containing 1:100 protease and phosphatase inhibitors, followed by 20 min incubation on ice and 15 min centrifugation at maximum speed. Samples were incubated overnight at 4° C. with solvent, OB201 or OB221 in a rotator. Streptavidin agarose beads (Sigma, Israel) were added for 2 hours. Protein elution was performed with lysis buffer without DTT for 10 min at room temperature. Sample loading, transfer and immuno-blotting were performed as described above. […]

TLR2 = target: T2, TLR2 (Homo sapiens, UniProt O60603); assay: Precipitation from human CD14 monocyte lysate, blot against TLR2; assay type: binding; conditions: labelled compound (OB201/OB221)
T2 construct: endogenous in cells; host or cells: primary human CD14 monocytes
Description: as §1, §2

[3] = target: T3, HA-tagged human MOSPD2 on HEK293 cells (Homo sapiens, UniProt Q8NHP6); assay: Cell-surface binding by flow cytometry on transfected HEK293 cells; conditions: for staining of / binding to cells that express MOSPD2 (HA positive): labelled compound (OB201/OB221), streptavidin-APC, HEK293 transfected with HA-tagged MOSPD2
T3 construct: Full length human MOSPD2 cDNA was inserted, using EcoRI and XbaI restriction sites; HA (YPYDVPDYA); expressed in transfected cells; host or cells: HEK293
T3 sequence (Q8NHP6 1-518): T1 sequence (Q8NHP6 1-518)
Description: HEK293 cells were transfected for 48 hours with empty plasmid or plasmid encoding hemagglutinin (HA)-tagged human MOSPD2 using jetPRIME transfection reagent (Polyplus transfection, France). Transfection efficiency was determined by flow cytometry using anti-HA-PE (miltenyi Biotec, Germany) antibody.
as §1
Streptavidin-APC (eBioscience, San Diego, CA) was used to detect binding of labelled VB-201 or VB-221 in flow cytometry experiments.
Studies were also conducted to assess whether VB-201 can bind MOSPD2 in its native form, when expressed on the cell surface. Thus, HEK293 cells were transfected with a plasmid encoding HA-tagged human MOSPD2 and then stained with labelled VB-201 or VB-221.

monocytes = conditions: cited from earlier work
[4] = system: chemokine-induced signaling in human monocytes; conditions: cited from earlier work

T2 sequence (O60603 21-784): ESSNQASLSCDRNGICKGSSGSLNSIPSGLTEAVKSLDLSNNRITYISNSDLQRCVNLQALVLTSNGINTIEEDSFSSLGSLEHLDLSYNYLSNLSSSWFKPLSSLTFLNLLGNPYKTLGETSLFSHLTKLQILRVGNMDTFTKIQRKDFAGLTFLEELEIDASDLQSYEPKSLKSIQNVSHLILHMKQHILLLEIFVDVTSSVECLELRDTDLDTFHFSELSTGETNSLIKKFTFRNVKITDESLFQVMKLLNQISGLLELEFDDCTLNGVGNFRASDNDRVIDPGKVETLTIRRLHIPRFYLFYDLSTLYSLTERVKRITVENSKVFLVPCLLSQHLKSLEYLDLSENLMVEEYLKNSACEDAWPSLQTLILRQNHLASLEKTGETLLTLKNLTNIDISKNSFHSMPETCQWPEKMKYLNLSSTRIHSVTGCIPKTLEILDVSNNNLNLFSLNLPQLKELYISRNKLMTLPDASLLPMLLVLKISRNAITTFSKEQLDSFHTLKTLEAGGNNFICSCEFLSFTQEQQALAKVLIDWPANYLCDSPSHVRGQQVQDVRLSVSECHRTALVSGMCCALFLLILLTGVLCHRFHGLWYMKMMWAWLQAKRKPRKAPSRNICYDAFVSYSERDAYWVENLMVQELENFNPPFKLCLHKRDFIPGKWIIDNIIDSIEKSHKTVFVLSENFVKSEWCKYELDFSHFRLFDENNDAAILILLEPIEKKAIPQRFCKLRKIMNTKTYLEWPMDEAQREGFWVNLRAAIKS

Row | Compound | binding of MOSPD2 (Mass-Spectrometry of precipitated proteins) (MOSPD2 [1]) | precipitation of MOSPD2 (MOSPD2 [2]) | precipitation of TLR2 (TLR2) | binding to cells transfected with empty vector ([3]; HEK293 transfected with empty vector) | staining of / binding to cells that express MOSPD2 (HA positive) [3] | migration of monocytes (monocytes; in vitro and in vivo) | chemokine-induced migration in human monocytes (monocytes) | chemokine-induced signaling in human monocytes [4]
1 | 1-hexadecyl-2-(4′-carboxy)butyl-glycero-3-phosphocholine [VB-201] | strong binding | binds; also recorded: markedly more intense than VB-221 | comparable intensity | not | binds; also recorded: profound staining | inhibits |  | 
2 | CCCCCCCCCCC(CCCCCCCC)COCC(COP(=O)([O-])OCC[N+](C)(C)C)OCCCCC(=O)O (centres unmarked) [VB-221, 1-(2′-octyl)dodecyl-2-(4′-carboxy)butyl-glycero-3-phosphocholine] | not |  | comparable intensity |  | only weak staining |  | did not inhibit | did not inhibit
